Tested on: MV-4-11 cells
Assay: Gene expression microarray analysis (Affymetrix PrimeView) and GSEA
Format: cell-based, human
Design: RFU PODN (11730768_x_at) / Fold change /veh PODN (11730768_x_at) / RFU LINC00158 (11744669_a_at) / Fold change /veh LINC00158 (11744669_a_at) / RFU DUSP10 (11751237_a_at) / Fold change /veh DUSP10 (11751237_a_at) / RFU ID3 (11757404_x_at) / Fold change /veh ID3 (11757404_x_at) / RFU PLEKHG5 (11737974_s_at) / Fold change /veh PLEKHG5 (11737974_s_at) / RFU LRRC4B (11730491_at) / Fold change /veh LRRC4B (11730491_at) / RFU GIMAP4 (11747438_a_at) / Fold change /veh GIMAP4 (11747438_a_at) / RFU KRT8 (11758183_x_at) / Fold change /veh KRT8 (11758183_x_at) / RFU CNN1 (11734310_a_at) / Fold change /veh CNN1 (11734310_a_at) / RFU VPS37D (11726825_at) / Fold change /veh VPS37D (11726825_at) / RFU C10orf10 (11716522_x_at) / Fold change /veh C10orf10 (11716522_x_at) / RFU KIR2DL2 /// KIR2DL4 /// KIR2DL5A /// KIR2DL5B /// KIR2DS1 /// KIR2DS2 /// KIR2DS3 /// KIR2DS4 /// KIR3DL3 /// KIR3DL3 /// KIR3DS1 (11738374_at) / Fold change /veh KIR2DL2 /// KIR2DL4 /// KIR2DL5A /// KIR2DL5B /// KIR2DS1 /// KIR2DS2 /// KIR2DS3 /// KIR2DS4 /// KIR3DL3 /// KIR3DL3 /// KIR3DS1 (11738374_at) / RFU C1QL1 (11718748_at) / Fold change /veh C1QL1 (11718748_at) / RFU TMPRSS4 (11747572_a_at) / Fold change /veh TMPRSS4 (11747572_a_at) / RFU HAMP (11756126_x_at) / Fold change /veh HAMP (11756126_x_at) / RFU RNFT2 (11725882_a_at) / Fold change /veh RNFT2 (11725882_a_at) / RFU NR4A2 (11747474_a_at) / Fold change /veh NR4A2 (11747474_a_at) / RFU ABCC12 (11746883_a_at) / Fold change /veh ABCC12 (11746883_a_at) / RFU TMEM136 (11760407_x_at) / Fold change /veh TMEM136 (11760407_x_at) / RFU CLDN22 /// WWC2 (11732394_at) / Fold change /veh CLDN22 /// WWC2 (11732394_at) / RFU HLA-DPB1 (11760878_x_at) / Fold change /veh HLA-DPB1 (11760878_x_at) / RFU SPINT1 (11716480_a_at) / Fold change /veh SPINT1 (11716480_a_at) / RFU GAP43 (11754022_s_at) / Fold change /veh GAP43 (11754022_s_at) / RFU A4GNT (11735810_at) / Fold change /veh A4GNT (11735810_at) / RFU PRB3 (11715151_x_at) / Fold change /veh PRB3 (11715151_x_at) / RFU TUBB4B (11761932_at) / Fold change /veh TUBB4B (11761932_at) / RFU CAPN14 (11732068_a_at) / Fold change /veh CAPN14 (11732068_a_at) / RFU TMCC2 (11721928_a_at) / Fold change /veh TMCC2 (11721928_a_at) / RFU IRGQ (11745062_a_at) / Fold change /veh IRGQ (11745062_a_at) / RFU FAM174B (11720279_a_at) / Fold change /veh FAM174B (11720279_a_at) / RFU TMPRSS4 (11748680_a_at) / Fold change /veh TMPRSS4 (11748680_a_at) / RFU FAM212B (11763350_a_at) / Fold change /veh FAM212B (11763350_a_at) / RFU PLEKHG5 (11743358_a_at) / Fold change /veh PLEKHG5 (11743358_a_at) / RFU ZSCAN30 (11745921_a_at) / Fold change /veh ZSCAN30 (11745921_a_at) / RFU CMKLR1 (11741424_a_at) / Fold change /veh CMKLR1 (11741424_a_at) / RFU LOC101060620 /// MAPK8IP1 (11723275_at) / Fold change /veh LOC101060620 /// MAPK8IP1 (11723275_at) / RFU SPTSSB (11747773_x_at) / Fold change /veh SPTSSB (11747773_x_at) / RFU PRSS12 (11739890_at) / Fold change /veh PRSS12 (11739890_at) / RFU BIN1 (11741810_x_at) / Fold change /veh BIN1 (11741810_x_at) / RFU WNT11 (11732464_a_at) / Fold change /veh WNT11 (11732464_a_at) / RFU C10orf10 (11716521_a_at) / Fold change /veh C10orf10 (11716521_a_at) / RFU C5orf56 (11738089_at) / Fold change /veh C5orf56 (11738089_at) / RFU CYB561 (11721691_x_at) / Fold change /veh CYB561 (11721691_x_at) / RFU ANKRD19P (11752326_a_at) / Fold change /veh ANKRD19P (11752326_a_at) / RFU OR2T12 /// OR2T33 /// OR2T8 (11738714_s_at) / Fold change /veh OR2T12 /// OR2T33 /// OR2T8 (11738714_s_at) / RFU VCAN (11748164_a_at) / Fold change /veh VCAN (11748164_a_at) / RFU JSRP1 (11732532_at) / Fold change /veh JSRP1 (11732532_at) / RFU KRTAP10-11 (11738290_x_at) / Fold change /veh KRTAP10-11 (11738290_x_at) / RFU MYO3A (11730013_a_at) / Fold change /veh MYO3A (11730013_a_at) / RFU EBF3 (11725865_a_at) / Fold change /veh EBF3 (11725865_a_at) / RFU CAMK2N1 (11719241_x_at) / Fold change /veh CAMK2N1 (11719241_x_at) / RFU C5orf56 (11738088_a_at) / Fold change /veh C5orf56 (11738088_a_at) / RFU OLFML3 (11715873_a_at) / Fold change /veh OLFML3 (11715873_a_at) / RFU LOC100653217 /// NTM (11731650_a_at) / Fold change /veh LOC100653217 /// NTM (11731650_a_at) / RFU MAPK11 (11762145_a_at) / Fold change /veh MAPK11 (11762145_a_at) / RFU FIZ1 (11724087_x_at) / Fold change /veh FIZ1 (11724087_x_at) / RFU OASL (11726364_x_at) / Fold change /veh OASL (11726364_x_at) / RFU SOX15 (11748057_x_at) / Fold change /veh SOX15 (11748057_x_at) / RFU CD79A (11719716_a_at) / Fold change /veh CD79A (11719716_a_at) / RFU HIST1H1D (11736915_at) / Fold change /veh HIST1H1D (11736915_at) / RFU CASKIN2 (11723855_a_at) / Fold change /veh CASKIN2 (11723855_a_at) / RFU LOC730098 (11760151_x_at) / Fold change /veh LOC730098 (11760151_x_at) / RFU OR4N2 (11742367_at) / Fold change /veh OR4N2 (11742367_at) / RFU PRRT2 (11749266_a_at) / Fold change /veh PRRT2 (11749266_a_at) / RFU SNX32 (11753110_a_at) / Fold change /veh SNX32 (11753110_a_at) / RFU CDHR5 (11726645_a_at) / Fold change /veh CDHR5 (11726645_a_at) / RFU RCAN1 (11760418_a_at) / Fold change /veh RCAN1 (11760418_a_at) / RFU FAM167A (11723789_a_at) / Fold change /veh FAM167A (11723789_a_at) / RFU FAM26E (11764081_at) / Fold change /veh FAM26E (11764081_at) / RFU ISYNA1 (11749810_s_at) / Fold change /veh ISYNA1 (11749810_s_at) / RFU ACY1 (11761880_at) / Fold change /veh ACY1 (11761880_at) / RFU 11764098_at / Fold change /veh 11764098_at / RFU SAMD14 (11745864_x_at) / Fold change /veh SAMD14 (11745864_x_at) / RFU NPB (11741838_a_at) / Fold change /veh NPB (11741838_a_at) / RFU TMPRSS6 (11731388_a_at) / Fold change /veh TMPRSS6 (11731388_a_at) / RFU KRTAP10-2 (11738614_at) / Fold change /veh KRTAP10-2 (11738614_at) / RFU ARHGAP8 /// PRR5-ARHGAP8 (11727945_x_at) / Fold change /veh ARHGAP8 /// PRR5-ARHGAP8 (11727945_x_at) / RFU KRTAP5-7 /// NADSYN1 (11734609_at) / Fold change /veh KRTAP5-7 /// NADSYN1 (11734609_at) / RFU RASL12 (11751679_a_at) / Fold change /veh RASL12 (11751679_a_at) / RFU CDKN2B (11736163_a_at) / Fold change /veh CDKN2B (11736163_a_at) / RFU PRF1 (11729649_at) / Fold change /veh PRF1 (11729649_at) / RFU, ZNF638 /// ZNF638-IT1 / Fold change vs veh, ZNF638 /// ZNF638-IT1 / RFU, PANK3 / Fold change vs veh, PANK3 / RFU, SH3YL1 / Fold change vs veh, SH3YL1 / RFU, ZEB2 / Fold change vs veh, ZEB2 / RFU, NRIP1 / Fold change vs veh, NRIP1 / RFU, PTTG1IP / Fold change vs veh, PTTG1IP / RFU, CAPN2 / Fold change vs veh, CAPN2 / RFU, MED14 / Fold change vs veh, MED14 / RFU, SNORA58 / Fold change vs veh, SNORA58 / RFU, C1orf63 / Fold change vs veh, C1orf63 / RFU, LRRFIP1 / Fold change vs veh, LRRFIP1 / RFU, NDUFAF7 / Fold change vs veh, NDUFAF7 / RFU, SLC12A2 / Fold change vs veh, SLC12A2 / RFU, IBTK / Fold change vs veh, IBTK / RFU, ESF1 / Fold change vs veh, ESF1 / Fold change vs veh, TMEM50B / RFU, TAOK1 / Fold change vs veh, TAOK1 / RFU, ACBD3 / Fold change vs veh, ACBD3 / RFU, TMA16 / Fold change vs veh, TMA16 / RFU, RWDD3 / Fold change vs veh, RWDD3 / RFU, BCAT1 / Fold change vs veh, BCAT1 / RFU, EDEM3 / Fold change vs veh, EDEM3 / RFU, TMEM33 / Fold change vs veh, TMEM33 / RFU, WDR75 / Fold change vs veh, WDR75 / RFU, AHCTF1 / Fold change vs veh, AHCTF1 / RFU, TFRC / Fold change vs veh, TFRC / RFU, ZDHHC17 / Fold change vs veh, ZDHHC17 / RFU, NOM1 / Fold change vs veh, NOM1 / RFU, ARL8B / Fold change vs veh, ARL8B / RFU, ZBTB11 / Fold change vs veh, ZBTB11 / RFU, TAMM41 / Fold change vs veh, TAMM41 / RFU, KIAA1704 /// LOC100996395 / Fold change vs veh, KIAA1704 /// LOC100996395 / RFU, ING1 / Fold change vs veh, ING1 / RFU, TRMT61B / Fold change vs veh, TRMT61B / RFU, FUBP3 / Fold change vs veh, FUBP3 / RFU, TP53 / Fold change vs veh, TP53 / RFU, TNKS2 / Fold change vs veh, TNKS2 / RFU, ZFP14 / Fold change vs veh, ZFP14 / RFU, ACTR2 / Fold change vs veh, ACTR2 / RFU, PPP3R1 / Fold change vs veh, PPP3R1 / RFU, PIK3R1 / Fold change vs veh, PIK3R1 / RFU, HNRNPA1 / Fold change vs veh, HNRNPA1 / RFU, RNF170 / Fold change vs veh, RNF170 / RFU, ZNF28 / Fold change vs veh, ZNF28 / RFU, RNGTT / Fold change vs veh, RNGTT / RFU, OGT / Fold change vs veh, OGT / RFU, BRD1 / Fold change vs veh, BRD1 / RFU, MARS / Fold change vs veh, MARS / RFU, ZNF655 / Fold change vs veh, ZNF655 / RFU, FAHD1 / Fold change vs veh, FAHD1 / RFU, BDP1 / Fold change vs veh, BDP1 / RFU, LRRCC1 / Fold change vs veh, LRRCC1 / RFU, ARID1A / Fold change vs veh, ARID1A / RFU, ZNF146 / Fold change vs veh, ZNF146 / RFU, ZNF330 / Fold change vs veh, ZNF330 / RFU, GPN3 / Fold change vs veh, GPN3 / RFU, C9orf123 / Fold change vs veh, C9orf123 / RFU, N4BP2L2 / Fold change vs veh, N4BP2L2 / RFU, ARFIP1 / Fold change vs veh, ARFIP1 / RFU, FAM179B / Fold change vs veh, FAM179B / RFU, BCL10 / Fold change vs veh, BCL10 / RFU, UHRF1BP1L / Fold change vs veh, UHRF1BP1L / RFU, BET1 / Fold change vs veh, BET1 / RFU, CNOT2 / Fold change vs veh, CNOT2 / RFU, ZNF268 / Fold change vs veh, ZNF268 / Fold change vs veh, ZNF507 / RFU, DGCR2 / Fold change vs veh, DGCR2 / RFU, WDSUB1 / Fold change vs veh, WDSUB1 / Fold change vs veh, HSP90B1 /// MIR3652 / RFU, ADSS / Fold change vs veh, ADSS / RFU, GK / Fold change vs veh, GK / RFU, ZNF148 / Fold change vs veh, ZNF148 / RFU, TAF9 / Fold change vs veh, TAF9 / RFU, SLC1A5 / Fold change vs veh, SLC1A5 / RFU, SLMO2 / Fold change vs veh, SLMO2 / RFU, ABCC4 / Fold change vs veh, ABCC4 / RFU, LOC101060439 /// RAP1B / Fold change vs veh, LOC101060439 /// RAP1B / RFU, RFX7 / Fold change vs veh, RFX7 / RFU, GTPBP10 / Fold change vs veh, GTPBP10 / RFU, CNEP1R1 / Fold change vs veh, CNEP1R1 / RFU, BIVM-ERCC5 /// ERCC5 / Fold change vs veh, BIVM-ERCC5 /// ERCC5 / RFU, ILF3 / Fold change vs veh, ILF3 / RFU 11762660_at / Fold change /veh 11762660_at / RFU VCAN (11757783_s_at) / Fold change /veh VCAN (11757783_s_at) / RFU DDX43 (11728927_at) / Fold change /veh DDX43 (11728927_at) / RFU KRT8 (11758188_x_at) / Fold change /veh KRT8 (11758188_x_at) / RFU NKD1 (11759106_at) / Fold change /veh NKD1 (11759106_at) / RFU SRD5A1 (11742802_a_at) / Fold change /veh SRD5A1 (11742802_a_at) / RFU TPSAB1 /// TPSB2 (11721975_s_at) / Fold change /veh TPSAB1 /// TPSB2 (11721975_s_at) / RFU GSTM3 (11746129_a_at) / Fold change /veh GSTM3 (11746129_a_at) / RFU IL23R (11737362_x_at) / Fold change /veh IL23R (11737362_x_at) / RFU TMEM51 (11727254_a_at) / Fold change /veh TMEM51 (11727254_a_at) / RFU PIWIL2 (11732686_x_at) / Fold change /veh PIWIL2 (11732686_x_at) / RFU ORM1 (11744905_x_at) / Fold change /veh ORM1 (11744905_x_at) / RFU CCDC152 (11743942_at) / Fold change /veh CCDC152 (11743942_at) / RFU ECM1 (11717891_a_at) / Fold change /veh ECM1 (11717891_a_at) / RFU IL23R (11748794_a_at) / Fold change /veh IL23R (11748794_a_at) / RFU TNFAIP8L3 (11732012_x_at) / Fold change /veh TNFAIP8L3 (11732012_x_at) / RFU MBOAT4 (11741988_at) / Fold change /veh MBOAT4 (11741988_at) / RFU 11764193_at / Fold change /veh 11764193_at / RFU TMEM53 (11763286_at) / Fold change /veh TMEM53 (11763286_at) / RFU MAGEB2 (11727129_at) / Fold change /veh MAGEB2 (11727129_at) / RFU TMEM200A (11744735_a_at) / Fold change /veh TMEM200A (11744735_a_at) / RFU CCDC152 (11751479_a_at) / Fold change /veh CCDC152 (11751479_a_at) / RFU FAM211A (11726209_a_at) / Fold change /veh FAM211A (11726209_a_at) / RFU RGS16 (11746705_a_at) / Fold change /veh RGS16 (11746705_a_at) / RFU VCAN (11755009_s_at) / Fold change /veh VCAN (11755009_s_at) / RFU RHOB (11743442_s_at) / Fold change /veh RHOB (11743442_s_at) / RFU RGS16 (11720943_a_at) / Fold change /veh RGS16 (11720943_a_at) / RFU RGS16 (11720944_at) / Fold change /veh RGS16 (11720944_at) / RFU, VPS4B / Fold change vs veh, VPS4B / RFU, CREB1 / Fold change vs veh, CREB1 / RFU, DNAJC13 / Fold change vs veh, DNAJC13 / RFU, GNAQ / Fold change vs veh, GNAQ / RFU, CDK5R1 / Fold change vs veh, CDK5R1 / RFU, ZRANB3 / Fold change vs veh, ZRANB3 / RFU, CUL4A / Fold change vs veh, CUL4A / RFU, CCNY / Fold change vs veh, CCNY / RFU, UFL1 / Fold change vs veh, UFL1 / RFU, COG3 / Fold change vs veh, COG3 / RFU, DIAPH2 / Fold change vs veh, DIAPH2 / RFU, SKA2 / Fold change vs veh, SKA2 / RFU, AFF3 / Fold change vs veh, AFF3 / RFU, LMF1 / Fold change vs veh, LMF1 / RFU, IPO11 / Fold change vs veh, IPO11 / RFU, DFFB / Fold change vs veh, DFFB / RFU, FOXP1 / Fold change vs veh, FOXP1 / RFU, CARD8 / Fold change vs veh, CARD8 / RFU, STRN3 / Fold change vs veh, STRN3 / RFU, ADK / Fold change vs veh, ADK / RFU, RASSF2 / Fold change vs veh, RASSF2 / RFU, WIPF1 / Fold change vs veh, WIPF1 / RFU, LARP1B / Fold change vs veh, LARP1B / RFU, RASA1 / Fold change vs veh, RASA1 / RFU, RB1 / Fold change vs veh, RB1 / RFU, PPFIA1 / Fold change vs veh, PPFIA1 / RFU, MAT2A / Fold change vs veh, MAT2A / RFU, CCT5 / Fold change vs veh, CCT5 / RFU, WDR92 / Fold change vs veh, WDR92 / RFU, CUX1 / Fold change vs veh, CUX1 / RFU, TTC7A / Fold change vs veh, TTC7A / RFU, TMEM135 / Fold change vs veh, TMEM135 / RFU, DEPTOR / Fold change vs veh, DEPTOR / RFU, CPM / Fold change vs veh, CPM / RFU, DNAJB6 / Fold change vs veh, DNAJB6 / RFU, CACNA2D3 / Fold change vs veh, CACNA2D3 / RFU, DTX4 / Fold change vs veh, DTX4 / RFU, TFCP2 / Fold change vs veh, TFCP2 / RFU, GMCL1 /// GMCL1P1 / Fold change vs veh, GMCL1 /// GMCL1P1 / RFU, AEBP2 / Fold change vs veh, AEBP2 / RFU, SNHG1 /// SNORD22 /// SNORD25 /// SNORD26 /// SNORD27 /// SNORD28 /// SNORD29 /// SNORD31 / Fold change vs veh, SNHG1 /// SNORD22 /// SNORD25 /// SNORD26 /// SNORD27 /// SNORD28 /// SNORD29 /// SNORD31 / Fold change (Aza/veh), C12orf56 (ProbeSet 11735607_a_at) / Fold change (ACY-1035/veh), C12orf56 (ProbeSet 11735607_a_at) / Fold change (Aza/veh), FGFR1OP (ProbeSet 11751329_s_at) / Fold change (ACY-1035/veh), FGFR1OP (ProbeSet 11751329_s_at) / Fold change (Aza/veh), VPS36 (ProbeSet 11739960_a_at) / Fold change (ACY-1035/veh), VPS36 (ProbeSet 11739960_a_at) / RFU SYPL1 (11715823_x_at) / Fold change /veh SYPL1 (11715823_x_at) / RFU IGFBP7 (11715501_s_at) / Fold change /veh IGFBP7 (11715501_s_at) / RFU REEP3 (11722064_at) / Fold change /veh REEP3 (11722064_at) / RFU IGLL1 (11728026_x_at) / Fold change /veh IGLL1 (11728026_x_at): dose or concentration left out as unconfirmed
Conditions: MV-4-11 cells, 48 hours

Nc1ccc(-c2cccs2)cc1NC(=O)c1ccc2c(c1)cc(C1CC1)n2CCN1CCOCC1 [ACY-1035]
Fold change /veh CAPN14 (11732068_a_at): 1.08
